One may read the AC50 as the concentration at which the activity in the assay is half-maximal.

The assay deals with Clone20 osteoblast Shn3 3'UTR firefly luciferase, 24 h. Description: Shn3 3'UTR reporter inhibitors, dose response, cell-based, Clone20 osteoblasts, luminescence, dry powder, set 2 (AID 743417).

SMILES strings stand for the structures. Results filed as inconclusive are left out. Calls of active or inactive are those of the source.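 How the source made its calls: active means compounds lowering the luciferase signal with a fitted half-maximal dose at most twice their top valid dose (cut at about 30 µM in these data); inconclusive means flat fits with moderate signal loss, or poor fits; inactive means the rest.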 Some results are limits rather than exact numbers.

In the case of `COc1ccc(CNC(=O)C(C)n2ccc3cc(S(=O)(=O)N4CCCCCC4)ccc32)cc1` (configuration not stated), the AC50 is 518 nM.

In the case of `CCOC(=O)c1c2c(n(-c3ccc(OC)cc3)c1C)C(=O)C(=O)c1ccccc1-2`, the AC50 was 3150 nM. Next, `Oc1cc(Nc2ccccc2)cc2cccnc12`: 1790 nM; `O=C1NC2C(=CC(O)C(O)C2O)c2cc3c(cc21)OCO3` (configuration not stated): 2220 nM; `COc1ccc(CC(=O)Nc2cccc(S(=O)(=O)N3CCCCCC3)c2)cc1OC`: 2270 nM. Next, `CC(=O)NC(c1ccc2ccccc2c1)c1ccc2cccnc2c1O` (configuration not stated): 422 nM; `COc1ccc2c(c1)sc1nc(-c3ccccc3)cn12`: 7370 nM.

In the case of `Cc1cc(NNC(=O)c2cccc(C(F)(F)F)c2)nc2c1c(C)nn2C`, the AC50 is 2430 nM. Next, `COC(=O)c1ccccc1NC(=S)N(Cc1ccc2c(c1)OCO2)Cc1cc2cc(OC)ccc2[nH]c1=O`: 10400 nM. Next, `Cc1ccc(NC(=O)C2CCN(S(=O)(=O)c3ccc(N4CCCC4=O)cc3)CC2)cc1Cl`: 549 nM; `CC[C@H](C)[C@H]1O[C@]2(CC[C@@H]1C)C[C@@H]1C[C@@H](CC=C(C)[C@@H](O[C@H]3C[C@H](OC)[C@@H](O[C@H]4C[C@H](OC)[C@@H](O)[C@H](C)O4)[C@H](C)O3)[C@@H](C)C=CC=C3CO[C@@H]4[C@H](O)C(C)=C[C@@H](C(=O)O1)[C@]34O)O2`: 6320 nM; `CC1(Cc2ccc(OC(F)(F)F)cc2)C(=O)Nc2c(Cl)ccc(Cl)c21` (configuration not stated): 25700 nM. Next, `CC(C)(C)C(=O)N1CCN(c2ccc(NC(=O)c3ccc([N+](=O)[O-])o3)cc2)CC1`: 2450 nM. As for `CN(C)c1ccc(C=c2c3cc([N+](=O)[O-])ccc3n3c2cc(-c2ccccc2)[n+]3C)cc1`, the AC50 was 3300 nM. Next, `COc1ccc(NS(=O)(=O)c2ccc(OC)c(N(C)S(=O)(=O)c3ccc(Cl)cc3)c2)cc1`: 2920 nM; `Cc1cc(S(=O)(=O)c2ccc(Cl)cc2)nc(S(=O)(=O)c2ccc(Cl)cc2)c1C#N`: 2830 nM; `COc1ccccc1-c1c(-c2ccc(O)cc2O)n[nH]c1C(F)(F)F`: 708 nM. Next, `COCc1c(C(=O)Nc2cccc(S(=O)(=O)N3CCCCC3)c2)oc2ccccc12`: 9630 nM; `CCC(C)c1ccc(S(=O)(=O)N2CCN(C(=O)c3ccc(Cl)c(S(=O)(=O)N4CCOCC4)c3)CC2)cc1` (configuration not stated): 5320 nM. In the case of `COc1ccccc1CNc1nc(NCC2CC2)nc2ccsc12`, the AC50 was 4160 nM. As for `O=C(NCCc1ccccc1)c1ccc2c(c1)OCCO2`, the half-maximal activity concentration (AC50) was 2160 nM. As to `CCSc1nc2ccccc2n1C(=O)/C=C/c1ccc(OC)c(OC)c1`, the AC50 is 962 nM. Take `CCCCN1CC(COCc2ccccc2)Oc2cccc(Oc3cc(C)c(C)c(C)c3)c2S1(=O)=O` (configuration not stated): the AC50 is 9160 nM. Next, `O=C(c1n[nH]c(=O)c2ccccc12)N1CCN(C2c3ccccc3-c3ccccc32)CC1`: 7690 nM. Next, `C/C(Cl)=C\Cn1c(NCCc2ccccc2)nc2c1c(=O)n(C)c(=O)n2C`: 283 nM; `c1ccc(CN=C(NCc2ccccc2)NCc2ccccc2)cc1`: 1790 nM; `Fc1ccc2[nH]c3c(NCc4ccccc4)ncnc3c2c1`: 3090 nM.

As for `CCN(CCCl)c1cc(CN(C)C)cc(NC(=O)c2ccc(C(=O)Nc3cc(CN(C)C)cc(N(CC)CCCl)c3)cc2)c1`, the AC50 was 2650 nM. Next, `CC12CC(O)C3c4ccc(O)cc4CCC3C1CCC2=O` (configuration not stated): > 70000 nM (inactive); `CN1/C(=C/C(=O)c2nc(S(C)(=O)=O)ncc2Cl)C(C)(C)c2ccccc21`: 5210 nM; `CC(C)n1c(/C=C/[C@@H](O)C[C@@H](O)CC(=O)O)c(-c2ccc(F)cc2)c2ccccc21`: 2400 nM. For the compound `Cc1cc(NC(=O)CCN2CCN(C/C=C/c3ccccc3)CC2)ccc1Br`, the AC50 was 10200 nM.

The record behind these values is PubChem BioAssay AID743417 (Broad Institute, 2014).
